Where “and” joins values, the source holds several entries; their conditions need not be identical. Identical values can stand only once. Like-named read-outs stand apart in the source and are kept apart here. One block for each molecule: values may come before it.
Tests used:
[1] = target: T1, estrogen receptors of intact T47D cells (Homo sapiens, UniProt P03372); test: Displacement of ^3H-E2 binding to intact T47D cells; settings: 5 nM ^3H-E2, two hours at 37° C.; r9-r14: 2.5, 5.0, 50, 250, 500, 1000 nM Unlabeled E2; r15-r19: 1, 2, 4, 5, 16 mg/L Phenol Red
T1 construct: endogenous in cells; host or cells: T47D human breast cancer cells

[2] = test system: progesterone receptors of T47D cells; test: Induction of progesterone receptors in T47D cells; format: cell-based, human; settings: four days, phenol red free medium
[3] = test system: progesterone receptors of MTW9/PL2 cells; test: Estrogen induction of progesterone receptors in MTW9/PL2 cells; format: cell-based, rat; settings: 1.0×10^−8 M E2, within two days; two experiments
Description: All results were normalized to “receptors per cell” to correct for growth over the duration of the experiment.

[4] = target: human SHBG (Homo sapiens, UniProt P04278); settings: 37° C.; cited from earlier work
[5] = test system: GH4C1 cells; test: Cell growth assay, GH4C1 rat pituitary tumor cells; settings: serum-free PCM-9
[6] = test system: CA-PS-Pool II; test: Scatchard analysis of labeled steroid binding to CA-PS-pool II; set-up: species or system horse; settings: 3H-labeled steroid, 34° C.
[7] = read-out: Kd of ^3H-E2 specific binding
[8] = test system: MCF-7K cells; test: Cell growth assay, MCF-7K human breast cancer cells; settings: serum-free DDM-2MF ± 10 nM E2, 12 days
[9] = test system: MCF-7A, T47D and MTW9/PL2 cells; test: Direct test of phenol red versus E2 as mitogen with three ER^+ cell lines; format: cell-based; settings: phenol red free D-MEM/F-12 with 30% CDE-HS
Experimental: Direct Test of Phenol Red Estrogenic Activity. Three cell lines were selected for a direct test of phenol red as a mitogen. […] This concentration was chosen even though it is not as inhibitory as 50% (v/v) serum. This selection was made to reduce possible interactions of the phenol red/contaminant with serum proteins while still retaining a significant inhibitory effect. Phenol red concentrations of up to 16 mg/L were added to this medium. This highest level was twice that in standard commercially formulated Gibco-BRL D-MEM/F-12. […] The preparations used in this study ranged in age from newly obtained to more than ten year old laboratory stocks.

[10] = target: estrogen receptor of H301 cells (Mesocricetus auratus, UniProt Q9QZJ5); settings: cited from earlier work
[11] = test system: ERβ; settings: Transfection Studies, ERβ only; cited from earlier work
[12] = test system: H301 cells; test: Cell growth assay, H301 kidney tumor cells; settings: serum-free defined CAPM
[13] = test system: T47D cells; test: Cell growth assay, T47D human breast cancer cells; settings: serum-free DDM-2MF ± 10 nM E2
[14] = test system: LNCaP cells; test: Cell growth assay, LNCaP human prostatic carcinoma cells; format: cell-based; settings: D-MEM/F-12 with CDE-horse serum, 10 nM steroid
Experimental: Specific modifications of the customary cell growth assays were required for assays done under iron-restricted conditions. […] Serum-free components were added to “low-Fe” D-MEM/F-12 at double the concentrations needed (2X) or to “standard” D-MEM/F-12 at (2X) as the experiments dictated. Each assay dish received 1.0 mL of this solution. Next, the cells to be used in the assays were washed three times in either “low-Fe” medium or “standard” medium depending upon the experimental protocol.

[15] = read-out: Kd of ^3H-E2 specific binding; remark: listed apart in the source
[16] = test system: CA-PS-Pool II from rat serum; test: Scatchard analysis of labeled steroid binding to the SHBG-like pools from rat serum; settings: 3H-labeled steroid
[17] = target: T2, CA-PS-Pool I (predominantly CBG) (Equus caballus, UniProt F7DRS2); test: Scatchard analysis of labeled steroid binding to CA-PS-pool I; set-up: species or system horse; settings: 3H-labeled steroid, 34° C.; read-out: CA-PS-Pool I Kd
T2 sequence (F7DRS2 23-406): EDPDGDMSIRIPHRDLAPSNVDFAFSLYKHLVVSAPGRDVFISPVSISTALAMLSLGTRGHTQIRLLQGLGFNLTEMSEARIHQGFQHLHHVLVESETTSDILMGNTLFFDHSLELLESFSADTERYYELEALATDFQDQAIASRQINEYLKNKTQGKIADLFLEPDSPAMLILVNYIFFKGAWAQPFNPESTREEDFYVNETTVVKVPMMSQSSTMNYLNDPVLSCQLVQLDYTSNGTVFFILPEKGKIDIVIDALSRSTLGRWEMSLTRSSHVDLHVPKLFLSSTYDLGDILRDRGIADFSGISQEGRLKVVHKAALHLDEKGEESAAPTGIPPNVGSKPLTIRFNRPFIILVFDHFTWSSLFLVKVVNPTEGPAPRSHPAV

[18] = test system: ZR-75-1 cells; test: Cell growth assay, ZR-75-1 human breast cancer cells; settings: serum-free defined DDM-2MF
[19] = test system: HT-29 cells; test: Cell growth assay, HT-29 human colon cancer cells; format: cell-based; settings: CAPM with plasma IgM at 40 μg/mL, increasing concentrations of T3
Description: General Cell Culture—Growth Assay Methods.
General Cell Culture—Harvest and Counting Cells.
General Cell Culture—Quantification of Growth.

[20] = test system: GH4C1, GH1 and GH3 rat pituitary tumor cell lines; test: Thyroid hormone growth effects with GH cell lines in CDE-horse serum; format: cell-based
Experimental: Thyroid Hormone Responsive Pituitary Tumor Cell Growth in CDE-Serum Prepared at 34° C. […] Nonetheless, the 34° C. […] It is known that the thyroid hormone receptor is a member of a superfamily of receptors that also includes the steroid hormone receptors (Evans R M (1988) Science (Wash D.C.) 240:889-895). Testing of substances expected to have thyroid hormone like activity can be performed with the GH cell lines in the presence of low concentrations of CDE-serum.

Chain of estrogen receptor of H301 cells (Q9QZJ5 whole entry): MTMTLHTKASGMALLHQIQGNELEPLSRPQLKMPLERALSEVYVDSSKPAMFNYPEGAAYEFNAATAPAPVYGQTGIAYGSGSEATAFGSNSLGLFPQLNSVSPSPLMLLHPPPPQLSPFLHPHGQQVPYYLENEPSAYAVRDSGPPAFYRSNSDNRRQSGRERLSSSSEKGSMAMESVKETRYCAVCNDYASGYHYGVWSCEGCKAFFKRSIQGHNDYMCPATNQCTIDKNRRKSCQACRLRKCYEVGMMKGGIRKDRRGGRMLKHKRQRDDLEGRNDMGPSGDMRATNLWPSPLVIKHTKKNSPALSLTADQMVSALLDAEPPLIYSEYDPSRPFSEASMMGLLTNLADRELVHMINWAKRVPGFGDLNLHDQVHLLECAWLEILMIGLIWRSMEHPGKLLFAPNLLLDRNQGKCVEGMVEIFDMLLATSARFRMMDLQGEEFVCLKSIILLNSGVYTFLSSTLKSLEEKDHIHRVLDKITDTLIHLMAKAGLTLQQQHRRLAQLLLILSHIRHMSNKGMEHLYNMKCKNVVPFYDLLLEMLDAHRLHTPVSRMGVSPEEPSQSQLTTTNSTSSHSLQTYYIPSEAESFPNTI
Chain of human SHBG (P04278 30-402): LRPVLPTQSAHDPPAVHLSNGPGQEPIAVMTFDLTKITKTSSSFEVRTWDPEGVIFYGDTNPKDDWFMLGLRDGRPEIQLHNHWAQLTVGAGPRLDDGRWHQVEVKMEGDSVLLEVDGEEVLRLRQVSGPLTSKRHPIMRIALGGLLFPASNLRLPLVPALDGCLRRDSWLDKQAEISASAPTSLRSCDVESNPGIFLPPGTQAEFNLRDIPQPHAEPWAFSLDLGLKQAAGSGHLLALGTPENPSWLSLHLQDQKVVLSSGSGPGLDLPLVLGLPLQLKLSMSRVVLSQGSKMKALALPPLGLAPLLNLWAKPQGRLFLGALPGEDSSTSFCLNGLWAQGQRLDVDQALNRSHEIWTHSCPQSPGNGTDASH

- Percent of Control [1]: 102% and 111% and 94% and 99% and 110%
SMILES: O=S1(=O)OC(c2ccc(O)cc2)(c2ccc(O)cc2)c2ccccc21 [Phenol Red]

SMILES: C[C@]12CC[C@@H]3c4ccc(O)cc4CC[C@H]3[C@@H]1CC[C@@H]2O [E2, 17β-estradiol]
- increase in progesterone receptors ([2]; 1.0×10^−8 M): four
- increase in progesterone receptor content ([2]; 1.0×10^−12 M): two
- increase in number of progesterone receptors per cell [3]: 1.8 fold and 2.0 fold
- Ka of purified human SHBG [4]: 2.2e+08 M⁻¹
- effect of E2 in serum-free defined medium without inhibitor [5]: had no effect on growth rate or saturation density
- CA-PS-Pool II Ka [6]: 3.55e+07 M⁻¹
- Kd [7]: 20 to 50 nM
- effect of E2 in serum-free defined medium without inhibitor [8]: had no effect on growth rate or saturation density
- growth responses to the natural hormone [9]: 2 to 5 CPD
- Kd ([10]; read-out: Kd for E2, CELL EXTRACTS): 0.87 nM
- Kd ([10]; read-out: Kd for E2, Table 5: lowest Kd): 0.87 nM
- Kd ([10]; read-out: Kd for E2, WHOLE CELLS): 1 nM
- Kd for E2, CELL EXTRACTS [11]: 0.05 to 0.1 × 10^−9 M
- effect of estrogen in serum-free defined medium without inhibitor [12]: had no effect on H301 cell growth
- effect of estrogen in serum-free defined medium without inhibitor [13]: 0.5 to 1.0 CPD
- effect of estrogen in serum-free defined medium without inhibitor ([13]; listed as estrogen): 1.0 CPD
- reversal of the inhibition caused by CDE-horse serum [14]: reversed the CDE-serum caused inhibition completely
- Kd [15]: 20 to 50 nM
- CA-PS-Pool II Ka [16]: 2.4e+07 M⁻¹
- Kd [16]: 41 nM
- Kd [17]: 10500 nM
- effect of E2 in serum-free defined medium without inhibitor [18]: no effect

SMILES: N[C@@H](Cc1cc(I)c(Oc2ccc(O)c(I)c2)c(I)c1)C(=O)O [T3, 3′, 5-Triiodothyronine]
- thyroid hormone reversal of the IgM inhibition [19]: restored growth
- growth effect, result in words ([20]; 50% (v/v) CDE-horse serum): only supraphysiologic concentrations of thyroid hormone showed growth effects
- growth effect, result in words ([20]; D-MEM/F-12 with […] (v/v) CDE-horse serum): caused substantial growth

From patent publication US7947275B2 (Signe Biopharma, Inc., priority 2000, dated 2011)
